Results as given in the CheMixHub viscosity set.

Test: xn = mol fraction of the nth substance listed

COCCOCCOCCOC + ClC(Cl)Cl
298.15 K, 101 kPa
Settings | viscosity [mPa·s]
x1 = 0.0083 | 0.569
x1 = 0.0278 | 0.622
x1 = 0.0552 | 0.702
x1 = 0.0851 | 0.795
x1 = 0.1347 | 0.962
x1 = 0.195 | 1.16
x1 = 0.241 | 1.295
x1 = 0.2903 | 1.425
x1 = 0.3545 | 1.559
x1 = 0.4174 | 1.678
x1 = 0.4686 | 1.717
x1 = 0.5236 | 1.766
x1 = 0.5853 | 1.809
x1 = 0.631 | 1.836
x1 = 0.708 | 1.868
x1 = 0.7445 | 1.893
x1 = 0.8071 | 1.901
x1 = 0.8627 | 1.918
x1 = 0.9174 | 1.934
x2 = 0.0147 | 1.949

COCCOCCOCCO + ClC=C(Cl)Cl
298.15 K, 101.33 kPa
Settings | viscosity [mPa·s]
x1 = 0.0056 | 0.538
x1 = 0.0133 | 0.554
x1 = 0.0235 | 0.574
x1 = 0.0377 | 0.603
x1 = 0.0554 | 0.645
x1 = 0.0751 | 0.694
x1 = 0.0865 | 0.725
x1 = 0.1057 | 0.778
x1 = 0.1359 | 0.869
x1 = 0.171 | 0.983
x1 = 0.2125 | 1.134
x1 = 0.2627 | 1.342
x1 = 0.286 | 1.451
x1 = 0.3201 | 1.615
x1 = 0.3511 | 1.784
x1 = 0.3864 | 1.974
x1 = 0.4202 | 2.172
x1 = 0.4548 | 2.382
x1 = 0.4947 | 2.633
x1 = 0.5322 | 2.875
x1 = 0.5817 | 3.21
x1 = 0.6349 | 3.596
x1 = 0.6824 | 3.953
x1 = 0.7308 | 4.32
x1 = 0.7791 | 4.716
x1 = 0.8178 | 5.027
x1 = 0.8689 | 5.459
x1 = 0.9106 | 5.813
x1 = 0.9455 | 6.128
x1 = 0.9667 | 6.324
x2 = 0.0177 | 6.438

COCCOCCOCCOC + ClCCl
298.15 K, 101 kPa
Settings | viscosity [mPa·s]
x1 = 0.0122 | 0.436
x1 = 0.0214 | 0.451
x1 = 0.043 | 0.496
x1 = 0.0736 | 0.575
x1 = 0.1008 | 0.621
x1 = 0.159 | 0.752
x1 = 0.2062 | 0.868
x1 = 0.2482 | 0.96
x1 = 0.3121 | 1.078
x1 = 0.3987 | 1.247
x1 = 0.4705 | 1.371
x1 = 0.5389 | 1.476
x1 = 0.5879 | 1.549
x1 = 0.6389 | 1.645
x1 = 0.6782 | 1.669
x1 = 0.7651 | 1.787
x1 = 0.803 | 1.823
x1 = 0.8785 | 1.897
x1 = 0.9474 | 1.92

CCCC(=O)OC + Clc1ccccc1
viscosity [mPa·s], 101.3 kPa
Settings | 308.15 K | 318.15 K
x1 = 0.0851 | 0.648 | 0.601
x1 = 0.1025 | 0.647 | 0.6
x1 = 0.2257 | 0.63 | 0.588
x1 = 0.3019 | 0.621 | 0.58
x1 = 0.4004 | 0.607 | 0.567
x1 = 0.5036 | 0.593 | 0.552
x1 = 0.5911 | 0.58 | 0.54
x1 = 0.6834 | 0.564 | 0.527
x1 = 0.8223 | 0.541 | 0.504
x1 = 0.8997 | 0.525 | 0.489
x1 = 0.9522 | 0.515 | 0.479

C1COCCOCCOCCOCCO1 + O
101 kPa
Settings | viscosity [mPa·s]
293.15 K, x1 = 0.0006204 | 1.026
293.15 K, x1 = 0.001402 | 1.056
293.15 K, x1 = 0.00196 | 1.077
293.15 K, x1 = 0.002451 | 1.096
293.15 K, x1 = 0.002972 | 1.116
293.15 K, x1 = 0.003463 | 1.135
298.15 K, x1 = 0.0008458 | 0.9177
298.15 K, x1 = 0.001528 | 0.94
298.15 K, x1 = 0.002266 | 0.9641
298.15 K, x1 = 0.002834 | 0.9822
298.15 K, x1 = 0.003303 | 0.9976
298.15 K, x1 = 0.003773 | 1.013
303.15 K, x1 = 0.0006643 | 0.8159
303.15 K, x1 = 0.001358 | 0.835
303.15 K, x1 = 0.002066 | 0.8548
303.15 K, x1 = 0.003143 | 0.8854
303.15 K, x1 = 0.00351 | 0.8952
303.15 K, x1 = 0.003848 | 0.9049
308.15 K, x1 = 0.0008516 | 0.7393
308.15 K, x1 = 0.001375 | 0.7519
308.15 K, x1 = 0.001712 | 0.7607
308.15 K, x1 = 0.00238 | 0.7764
308.15 K, x1 = 0.003105 | 0.7938
308.15 K, x1 = 0.003675 | 0.8069

CC(=O)[O-].CC[N+]1(C)CCOCC1 + O
viscosity [mPa·s], 100 kPa
Settings | x1 = 0.0567 | x1 = 0.0886 | x1 = 0.1794 | x1 = 0.253 | x1 = 0.3334 | x1 = 0.4341 | x1 = 0.4928 | x1 = 0.5718 | x1 = 0.6609 | x1 = 0.7155
298.15 K | 3.5 | 7.01 | 36.6 | 89.4 | 203 | 541 | 671 | 1472 | – | –
303.15 K | 3.03 | 5.93 | 31.9 | 66 | 143 | 347 | 503 | 1093 | – | –
308.15 K | 2.65 | 5.05 | 27 | 50 | 104 | 228 | 383 | 795 | 1969 | –
313.15 K | 2.34 | 4.33 | 22.5 | 38.7 | 78.1 | 150 | 278 | 566 | 1355 | 2266
318.15 K | 2.08 | 3.73 | 18.2 | 30.7 | 59.8 | 123 | 198 | 396 | 908 | 1518
323.15 K | 1.86 | 3.25 | 15 | 24.8 | 46.8 | 92.9 | 144 | 276 | 599 | 971

CCNCC + O
297.65 K, 101.33 kPa
Settings | viscosity [mPa·s]
x1 = 0.0033 | 0.928
x1 = 0.0087 | 1.051
x1 = 0.0165 | 1.24
x1 = 0.023 | 1.405
x1 = 0.0271 | 1.508
x1 = 0.0342 | 1.691
x1 = 0.0458 | 1.985
x1 = 0.0592 | 2.305
x1 = 0.0733 | 2.604
x1 = 0.0885 | 2.863
x1 = 0.104 | 3.037
x1 = 0.1203 | 3.096
x1 = 0.1385 | 3.121

COCCOCCOCCO + O
101.33 kPa
Settings | viscosity [mPa·s]
298.15 K, x1 = 0.0497 | 2.531
298.15 K, x1 = 0.0989 | 4.964
298.15 K, x1 = 0.1415 | 6.443
298.15 K, x1 = 0.2035 | 7.869
298.15 K, x1 = 0.3069 | 8.456
298.15 K, x1 = 0.4204 | 7.901
298.15 K, x1 = 0.5037 | 7.472
298.15 K, x1 = 0.6109 | 6.897
298.15 K, x1 = 0.7651 | 6.754
298.15 K, x1 = 0.84 | 6.754
298.15 K, x1 = 0.8917 | 6.594
308.15 K, x1 = 0.0226 | 1.317
308.15 K, x1 = 0.0554 | 2.514
308.15 K, x1 = 0.0964 | 3.669
308.15 K, x1 = 0.1278 | 4.537
308.15 K, x1 = 0.1726 | 5.437
308.15 K, x1 = 0.2157 | 5.977
308.15 K, x1 = 0.2434 | 6.176
308.15 K, x1 = 0.302 | 6.38
308.15 K, x1 = 0.3364 | 6.428
308.15 K, x1 = 0.3687 | 6.422
308.15 K, x1 = 0.3952 | 6.376
308.15 K, x1 = 0.42 | 6.331
308.15 K, x1 = 0.4712 | 6.215
308.15 K, x1 = 0.5057 | 6.123
308.15 K, x1 = 0.5471 | 6.022
308.15 K, x1 = 0.6208 | 5.83
308.15 K, x1 = 0.6681 | 5.716
308.15 K, x1 = 0.6996 | 5.651
308.15 K, x1 = 0.775 | 5.463
308.15 K, x1 = 0.8279 | 5.355
308.15 K, x1 = 0.8744 | 5.266
308.15 K, x1 = 0.9499 | 5.134
313.15 K, x1 = 0.0497 | 1.632
313.15 K, x1 = 0.0989 | 2.994
313.15 K, x1 = 0.1415 | 3.785
313.15 K, x1 = 0.2035 | 4.556
313.15 K, x1 = 0.3069 | 4.963
313.15 K, x1 = 0.4204 | 4.933
313.15 K, x1 = 0.5037 | 4.812
313.15 K, x1 = 0.6109 | 4.728
313.15 K, x1 = 0.7651 | 4.394
313.15 K, x1 = 0.84 | 4.295
313.15 K, x1 = 0.8917 | 4.236
323.15 K, x1 = 0.0497 | 1.3
323.15 K, x1 = 0.0989 | 2.266
323.15 K, x1 = 0.1415 | 2.812
323.15 K, x1 = 0.2035 | 3.375
323.15 K, x1 = 0.3069 | 3.689
323.15 K, x1 = 0.4204 | 3.709
323.15 K, x1 = 0.5037 | 3.647
323.15 K, x1 = 0.6109 | 3.566
323.15 K, x1 = 0.7651 | 3.428
323.15 K, x1 = 0.84 | 3.352
323.15 K, x1 = 0.8917 | 3.307
